This assay concerns the target T1, c-kit (Homo sapiens, UniProt P10721).
T1 construct: human Mo7e cells which endogenously express c-kit; endogenous in cells; host or cells: human Mo7e cells (SCF-dependent promegakaryocytic leukemia line)
The assay is described as follows: Mo7e cell proliferation assay (SCF dependent proliferation). The format is cell-based. To be noted: Table 1; human Mo7e cells stimulated with human recombinant SCF, 48 h, CellTiter Glo; 1% FBS (footnote). The protocol:
Compounds of Formula (I) and Formula (II) provided herein were assayed to measure their capacity to inhibit c-kit and PDGFR kinases using the appropriate assay described below: c-Kit inhibition was evaluated using the Mo7e cell proliferation assay, and PDGFR inhibition was evaluated using the Rat A10 cell proliferation assay and the Human TGHA-VSMC cell proliferation assay.
The compounds of Table 1 and Table 2 were tested for inhibition of SCF dependent proliferation using human Mo7e cells which endogenously express c-kit in a 384 well format. […] After 48 hours of incubation at 37° C., cell viability was measured by adding 25 uL of CellTiter Glo (Promega) to the cells and the luminescence was measured by a CLIPR CCD camera (Molecular Devices).
The IC50 value is given as that concentration of the test compound in question that provoke a response halfway between the baseline and maximum responses.
On the technique in general: Cellular ATP, detected with luciferase, serves as a proxy for viable cell number.
T1 sequence (P10721 26-976): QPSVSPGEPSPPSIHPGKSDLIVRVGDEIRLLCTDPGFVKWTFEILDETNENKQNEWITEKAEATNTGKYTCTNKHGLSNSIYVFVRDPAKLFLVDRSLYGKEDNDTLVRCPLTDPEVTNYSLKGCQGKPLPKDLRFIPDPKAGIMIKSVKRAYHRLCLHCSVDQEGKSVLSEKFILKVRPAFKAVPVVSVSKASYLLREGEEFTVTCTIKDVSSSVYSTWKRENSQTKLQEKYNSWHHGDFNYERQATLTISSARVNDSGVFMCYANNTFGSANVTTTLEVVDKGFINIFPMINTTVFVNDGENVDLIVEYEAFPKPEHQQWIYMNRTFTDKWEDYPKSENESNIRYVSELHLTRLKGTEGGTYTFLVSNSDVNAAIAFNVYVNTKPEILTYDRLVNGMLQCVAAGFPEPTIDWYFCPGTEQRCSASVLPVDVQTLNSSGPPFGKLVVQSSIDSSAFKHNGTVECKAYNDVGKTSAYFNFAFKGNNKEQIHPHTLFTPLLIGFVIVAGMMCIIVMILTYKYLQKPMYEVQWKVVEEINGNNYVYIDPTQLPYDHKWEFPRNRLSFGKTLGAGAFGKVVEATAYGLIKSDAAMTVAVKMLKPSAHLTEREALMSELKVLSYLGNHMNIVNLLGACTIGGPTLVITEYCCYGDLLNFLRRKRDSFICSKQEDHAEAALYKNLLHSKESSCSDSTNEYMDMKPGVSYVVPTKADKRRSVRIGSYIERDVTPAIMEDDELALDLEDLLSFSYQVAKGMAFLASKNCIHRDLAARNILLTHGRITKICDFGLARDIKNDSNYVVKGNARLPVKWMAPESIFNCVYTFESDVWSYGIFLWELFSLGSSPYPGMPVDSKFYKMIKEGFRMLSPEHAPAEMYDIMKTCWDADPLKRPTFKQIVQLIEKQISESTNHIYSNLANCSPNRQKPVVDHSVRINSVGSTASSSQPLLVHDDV
In general, IC50 refers to the concentration needed to halve the response being measured. Take `Cc1ccc(-c2noc(CN(C)C(=O)OC(C)(C)C)n2)cc1NC(=O)c1cnc2ccccn12` [F19, tert-butyl (3-(3-(imidazo[1,2-a]pyridine-3-carboxamido)-4-methylphenyl)-1,2,4-oxadiazol-5-yl)methyl(methyl)carbamate]: the IC50 turned out to be 0.057 µM.

`CCS(=O)(=O)NCc1nc(-c2ccc(C)c(NC(=O)c3cnc4ccccn34)c2)no1` [F20]: the IC50 is 0.061 µM.

Turning to `CCN(Cc1nc(-c2ccc(C)c(NC(=O)c3cnc4ccccn34)c2)no1)C(=O)OC(C)(C)C` [F21], the 50% inhibitory concentration (IC50) amounted to 0.055 µM.

Take `CCN(Cc1nc(-c2ccc(C)c(NC(=O)c3cnc4ccccn34)c2)no1)S(C)(=O)=O` [F22]: the IC50 was 0.089 µM.

Consider `CCN(Cc1nc(-c2ccc(C)c(NC(=O)c3cnc4ccccn34)c2)no1)C(=O)OC` [F23], for which the IC50 was found to be 0.059 µM.

In the case of `Cc1ccc(-c2noc(CNC(=O)C(F)(F)F)n2)cc1NC(=O)c1cnc2ccccn12` [F24, N-(2-methyl-5-(5-((2,2,2-trifluoroacetamido)methyl)-1,2,4-oxadiazol-3-yl)phenyl)imidazo[1,2-a]pyridine-3-carboxamide], the IC50 is 0.056 µM.

`Cc1ccc(-c2noc(CNS(=O)(=O)C(C)C)n2)cc1NC(=O)c1cnc2ccccn12` [F25]: the concentration for half-maximal inhibition (IC50) was found to be 0.079 µM.

As to `COCCOCc1nc(-c2ccc(C)c(NC(=O)c3cnc4ccccn34)c2)no1` [F26], the IC50 was determined as 0.059 µM.

`Cc1ccc(-c2noc(CC(=O)OC(C)(C)C)n2)cc1NC(=O)c1cnc2ccccn12` [F27, tert-butyl 2-(3-(3-(imidazo[1,2-a]pyridine-3-carboxamido)-4-methylphenyl)-1,2,4-oxadiazol-5-yl)acetate]: the IC50 is 0.022 µM.

For the molecule `Cc1ccc(-c2noc(CCOCC(F)(F)F)n2)cc1NC(=O)c1cnc2ccccn12` [F28], the IC50 amounted to 0.007 µM.

Turning to `CCOC(=O)NCc1nc(-c2ccc(C)c(NC(=O)c3cnc4ccccn34)c2)no1` [F29], the IC50 was 0.08 µM.

Turning to `Cc1ccc(-c2noc(CNC(=O)OC(C)C)n2)cc1NC(=O)c1cnc2ccccn12` [F30], the IC50 was found to be 0.061 µM.

With `Cc1ccc(-c2noc(C[C@@H](O)C(F)(F)F)n2)cc1NC(=O)c1cnc2ccccn12` [F31], the 50% inhibitory concentration (IC50) turned out to be 0.058 µM.

Regarding `CCOCCOCc1nc(-c2ccc(C)c(NC(=O)c3cnc4ccccn34)c2)no1` [F32], the IC50 was 0.072 µM.

For the molecule `Cc1ccc(-c2noc(COCCOC(C)C)n2)cc1NC(=O)c1cnc2ccccn12` [F33, N-(5-(5-((2-isopropoxyethoxy)methyl)-1,2,4-oxadiazol-3-yl)-2-methylphenyl)imidazo[1,2-a]pyridine-3-carboxamide], the IC50 is 0.081 µM.

In the case of `Cc1ccc(-c2noc(COCCOC(C)(C)C)n2)cc1NC(=O)c1cnc2ccccn12` [F34], the IC50 came out at 0.093 µM.

Take `Cc1ccc(-c2noc(CNC(=O)CC(F)(F)F)n2)cc1NC(=O)c1cnc2ccccn12` [F35]: the IC50 is 0.043 µM.

With `Cc1ccc(-c2noc(CCC(C)(C)O)n2)cc1NC(=O)c1cnc2ccc(F)cn12` [F36, 6-fluoro-N-(5-(5-(3-hydroxy-3-methylbutyl)-1,2,4-oxadiazol-3-yl)-2-methylphenyl)imidazo[1,2-a]pyridine-3-carboxamide], the IC50 worked out at 0.087 µM.

Consider `COCCOCc1nc(-c2ccc(C)c(NC(=O)c3cnc4ccc(F)cn34)c2)no1` [F37], for which the IC50 came to 0.092 µM.

`CCOC(=O)NCc1nc(-c2ccc(C)c(NC(=O)c3cnc4ccc(F)cn34)c2)no1` [F38]: the IC50 was determined as 0.047 µM.

`Cc1ccc(-c2noc(COCC(F)(F)F)n2)cc1NC(=O)c1cnc2ccccn12` [F39]: the IC50 came to 0.008 µM.

Turning to `Cc1ccc(-c2noc(CNC(=O)OCC(F)F)n2)cc1NC(=O)c1cnc2ccccn12` [F40, 2,2-difluoroethyl ((3-(3-(imidazo[1,2-a]pyridine-3-carboxamido)-4-methylphenyl)-1,2,4-oxadiazol-5-yl)methyl)carbamate], the concentration for half-maximal inhibition (IC50) came to 0.071 µM.

On to `COC(=O)NCc1nc(-c2ccc(C)c(NC(=O)c3cnc4cc(-c5cnn(CCN6CCOCC6)c5)ccn34)c2)no1` [F41], for which the half-inhibitory concentration (IC50) came out at 0.023 µM.

Consider `Cc1ccc(-c2noc(CCC(C)(C)O)n2)cc1NC(=O)c1cnc2cc(-c3ccn(C)n3)ccn12` [F42], for which the IC50 is 0.009 µM.

Turning to `Cc1nc(-c2ccc(C)c(NC(=O)c3cnc4ccc(-c5cn[nH]c5)cn34)c2)no1` [F43], the IC50 worked out at 0.046 µM.

Consider `Cc1nc(-c2ccc(C)c(NC(=O)c3cnc4ccc(-c5cnn(C)c5)cn34)c2)no1` [F44], for which the IC50 turned out to be 0.025 µM.

As for `Cc1nc(-c2ccc(C)c(NC(=O)c3cnc4ccc(-c5cnn(CC(C)(C)O)c5)cn34)c2)no1` [F45], the IC50 amounted to 0.024 µM.

Turning to `Cc1ccc(Nc2noc(C(C)(C)CO)n2)cc1NC(=O)c1cnc2ccccn12` [F46, N-(5-(5-(1-hydroxy-2-methylpropan-2-yl)-1,2,4-oxadiazol-3-ylamino)-2-methylphenyl)imidazo[1,2-a]pyridine-3-carboxamide], the IC50 was 0.013 µM.

With `Cc1nc(-c2ccc(C)c(NC(=O)c3cnc4ccc(-c5cscn5)cn34)c2)no1` [F47], the IC50 was found to be 0.05 µM.

In the case of `Cc1nc(-c2ccc(C)c(NC(=O)c3cnc4ccc(-c5sc(C)nc5C)cn34)c2)no1` [F48], the 50% inhibitory concentration (IC50) turned out to be 0.007 µM.

`Cc1nc(-c2ccc(C)c(NC(=O)c3cnc4ccc(-c5c(C)noc5C)cn34)c2)no1` [F49]: the IC50 was found to be 0.053 µM.

In the case of `Cc1ccn2c(C(=O)Nc3cc(-c4noc(CCC(C)(C)O)n4)ccc3C)cnc2c1` [F50, N-(5-(5-(3-hydroxy-3-methylbutyl)-1,2,4-oxadiazol-3-yl)-2-methylphenyl)-7-methylimidazo[1,2-a]pyridine-3-carboxamide], the IC50 is 0.052 µM.

Regarding `Cc1nc(-c2ccc(C)c(NC(=O)c3cnc4ccc(-c5cnn(CCN6CCOCC6)c5)cn34)c2)no1` [F51], the IC50 is 0.095 µM.

As to `[2H]c1c([2H])c([2H])n2c(C(=O)Nc3cc(-c4noc(CC=C(C)C)n4)ccc3C)cnc2c1[2H]` [F52], the IC50 came to 0.016 µM.

Turning to `[2H]c1c([2H])c([2H])n2c(C(=O)Nc3cc(-c4noc(COCCOC)n4)ccc3C)cnc2c1[2H]` [F53, N-(5-(5-((2-methoxyethoxy)methyl)-1,2,4-oxadiazol-3-yl)-2-methylphenyl)5,6,7,8,deutero-imidazo[1,2-a]pyridine-3-carboxamide], the IC50 was 0.061 µM.

Take `Cc1ccc(-c2noc(CCC(=O)OC(C)C)n2)cc1NC(=O)c1cnc2ccccn12` [F55a, isopropyl 3-(3-(3-(imidazo[1,2-a]pyridine-3-carboxamido)-4-methylphenyl)-1,2,4-oxadiazol-5-yl)propanoate]: the IC50 is 0.092 µM.

Turning to `COc1ccc2ncc(C(=O)Nc3cc(-c4noc(CCC(C)(C)O)n4)ccc3C)n2c1` [F56], the IC50 worked out at 0.07 µM.

Take `Cc1ccc2ncc(C(=O)Nc3cc(-c4noc(CCC(C)(C)O)n4)ccc3C)n2c1` [F57]: the concentration for half-maximal inhibition (IC50) was 0.098 µM.

`COCCOCc1nc(-c2ccc(C)c(NC(=O)c3cnc4ccc(C)cn34)c2)no1` [F58]: the IC50 came out at 0.09 µM.

In the case of `CCCC(C)c1nc(-c2ccc(C)c(NC(=O)c3cnc4ccc(C)cn34)c2)no1` (stereo not shown) [F59], the IC50 came out at 0.022 µM.

Regarding `Cc1ccc(-c2noc(CCC(C)(C)O)n2)cc1NC(=O)c1cnc2cc(N3CCOCC3)ccn12` [F60], the IC50 is 0.058 µM.

Consider `Cc1ccc(-c2noc(CCC(C)(C)O)n2)cc1NC(=O)c1cnc2cc(N3CCOC3=O)ccn12` [F61], for which the IC50 was 0.272 µM.

For `Cc1ccc(-c2noc(CCC(C)(C)O)n2)cc1NC(=O)c1cnc2cc(N3CCCC3=O)ccn12` [F62], the IC50 was 0.079 µM.

These data come from US20150011508A1, “COMPOUNDS AND COMPOSITIONS AS C-KIT KINASE INHIBITORS” (priority 2011, published 2015).
